Experiment [1] addresses T1, SARS-CoV-2 PLpro (nsp3 1564–1878) (Severe acute respiratory syndrome coronavirus 2, UniProt P0DTD1). Briefly: biochemical. More on the design: FRET-quenched peptide (Pro3) cleavage by PLpro, 10 min pre-incubation, slope over 20 min, normalised to no-compound control. As to conditions: low concentration screen, read-out: % of control remaining.
The target of experiment [2] is T1, SARS-CoV-2 PLpro (nsp3 1564–1878). As to the kind of experiment: biochemical. More on the design: FRET-quenched peptide (Pro3) cleavage by PLpro, 10 min pre-incubation, slope over 20 min, normalised to no-compound control. As to conditions: high concentration screen, read-out: % of control remaining.

Molecules are shown by their SMILES. Counter-ions that a name gives are not always drawn. Like-named read-outs stand apart in the source and are kept apart here.

In the case of `O=c1[nH]c(=O)n([C@H]2C[C@H](O)[C@@H](CO)O2)cc1/C=C/Br` [(E)-5-(2-Bromovinyl)-2'-deoxyuridine], the remaining activity at 1.25 µM in experiment [1] (Well no.=83) amounted to 94.9%. Also, in experiment [2] (Well no.=83), the remaining activity at 3.75 µM turned out to be 94.4%.

Turning to `O=C(O)c1ccc(-n2nc(-c3ccccc3O)nc2-c2ccccc2O)cc1` [Deferasirox], the remaining activity at 1.25 µM in experiment [1] (Well no.=8190) amounted to 107%. For the same molecule, the remaining activity at 3.75 µM in experiment [2] (Well no.=8190) came to 100%.

As for `COC(=O)[C@H]1[C@H]2C[C@H]3c4[nH]c5ccccc5c4CCN3C[C@H]2CC[C@@H]1O` [Rauwolscine], the remaining activity at 1.25 µM in experiment [1] (Well no.=3128) amounted to 99%. The remaining activity at 3.75 µM in experiment [2] (Well no.=3128) worked out at 99.4%.

For `CN[C@H](CC(=O)O)C(=O)O` [N-Methyl-D-aspartic acid], in experiment [1] (Well no.=1020), the remaining activity at 1.25 µM came out at 103%. In addition, the remaining activity at 3.75 µM in experiment [2] (Well no.=1020) was 105%.

For `Nc1nc(=O)[nH]cc1F` [Flucytosine (Ancobon)], the remaining activity at 1.25 µM in experiment [1] (Well no.=5335) came to 94.7%. In experiment [2] (Well no.=5335), the remaining activity at 3.75 µM was determined as 101%.

Turning to `CC(=O)N[C@@H](CCC(N)=O)C(=O)O` [Aceglutamide], in experiment [1] (Well no.=7402), the remaining activity at 1.25 µM came out at 106%. Besides, the remaining activity at 3.75 µM in experiment [2] (Well no.=7402) turned out to be 102%.

Take `CN(N=O)C(=O)N[C@@H](C=O)[C@@H](O)[C@H](O)[C@H](O)CO` [Streptozocin]: in experiment [1] (Well no.=3317), the remaining activity at 1.25 µM was 100%. The remaining activity at 3.75 µM in experiment [2] (Well no.=3317) is 103%.

For the molecule `Cc1cccc(Cc2c[nH]cn2)c1C` [Detomidine (hydrochloride)], the remaining activity at 1.25 µM in experiment [1] (Well no.=6662) worked out at 98.9%. Also, the remaining activity at 3.75 µM in experiment [2] (Well no.=6662) came to 102%.

Turning to `CCCCC/C=C\C/C=C\C/C=C\CCCCCCC(=O)O` [Dihomo-γ-linolenic acid], the remaining activity at 1.25 µM in experiment [1] (Well no.=4317) turned out to be 99%. Also, in experiment [2] (Well no.=4317), the remaining activity at 3.75 µM is 99.1%.

In the case of `CC(C)Cc1ccc([C@@H](C)C(=O)NS(C)(=O)=O)cc1` [Reparixin], the figures for the remaining activity at 1.25 µM in experiment [1] (Well no.=7277) and in experiment [1] (Well no.=8501) were 99.5% and 106%, respectively. For the same molecule, the remaining activity at 3.75 µM stood at 99.9% in experiment [2] (Well no.=7277) and 106% in experiment [2] (Well no.=8501).

`COc1ccc(CCN(C)CCc2ccc(OC)c(OC)c2)cc1OC` [YS-035 hydrochloride]: the remaining activity at 1.25 µM in experiment [1] (Well no.=1246) is 103%. The remaining activity at 3.75 µM in experiment [2] (Well no.=1246) stood at 102%.

Consider `Cc1ccccc1N1CCN(CCc2nnc3n2CCCC3)CC1` [Dapiprazole (hydrochloride)], for which the remaining activity at 1.25 µM in experiment [1] (Well no.=6895) stood at 97.8%. In experiment [2] (Well no.=6895), the remaining activity at 3.75 µM is 100%.

For the molecule `CCCCCCCC/C=C\CCCCCCCCCCC(=O)O` [12(Z) Heneicosenoic acid], in experiment [1] (Well no.=4452), the remaining activity at 1.25 µM is 94%. The remaining activity at 3.75 µM in experiment [2] (Well no.=4452) worked out at 102%.

As to `COc1ccc2c(c1)C(=O)N(CCc1ccc(S(=O)(=O)NC(=O)NC3CCCCC3)cc1)C(=O)C2(C)C` [Gliquidone], the remaining activity at 1.25 µM in experiment [1] (Well no.=5369) amounted to 97.2%. In experiment [2] (Well no.=5369), the remaining activity at 3.75 µM came to 95.2%.

As for `CC1(C)CCC(c2ccc(Cl)cc2)=C(CN2CCN(c3ccc(C(=O)NS(=O)(=O)c4ccc(N[C@H](CCN5CCOCC5)CSc5ccccc5)c(S(=O)(=O)C(F)(F)F)c4)cc3)CC2)C1` [Navitoclax], the results for the remaining activity at 1.25 µM in experiment [1] (Well no.=6580) and in experiment [1] (Well no.=8224) were 93.1% and 103%, respectively. Besides, the remaining activity at 3.75 µM is 92.2% in experiment [2] (Well no.=6580) and 94.8% in experiment [2] (Well no.=8224).

`COc1ccc(-c2cc(=O)c3c(O)cc(O)cc3o2)cc1O` [Diosmetine]: the remaining activity at 1.25 µM in experiment [1] (Well no.=3573) was 97.4%. Further, in experiment [2] (Well no.=3573), the remaining activity at 3.75 µM was 97.7%.

Take `CN1CCC(=C2c3ccccc3CCc3sccc32)CC1` [Pizotifen]: the remaining activity at 1.25 µM in experiment [1] (Well no.=7531) stood at 103%. Besides, the remaining activity at 3.75 µM in experiment [2] (Well no.=7531) is 91.1%.

As to `Cn1cc(C2=C(c3cn(CCCSC(=N)N)c4ccccc34)C(=O)NC2=O)c2ccccc21` [Ro-31-8220], the remaining activity at 1.25 µM in experiment [1] (Well no.=2633) stood at 98.6%. Further, the remaining activity at 3.75 µM in experiment [2] (Well no.=2633) came to 96.9%.

For the molecule `CCOC(=O)c1c(CSc2ccccc2)n(C)c2cc(Br)c(O)c(CN(C)C)c12` [Arbidol HCl], in experiment [1] (Well no.=5098), the remaining activity at 1.25 µM was 104%. In addition, the remaining activity at 3.75 µM in experiment [2] (Well no.=5098) was 107%.

As for `O=C(Nc1ccc(OC(F)(F)F)cc1)c1sccc1NCc1ccnc2ccccc12` [OSI-930], the remaining activity at 1.25 µM in experiment [1] (Well no.=4755) worked out at 105%. Besides, the remaining activity at 3.75 µM in experiment [2] (Well no.=4755) amounted to 103%.

`N#C/C(=C\c1ccc(O)c(O)c1)C(=O)NCCCc1ccccc1` [Tyrphostin AG 555]: the remaining activity at 1.25 µM in experiment [1] (Well no.=1337) turned out to be 101%. For the same molecule, the remaining activity at 3.75 µM in experiment [2] (Well no.=1337) came to 98.7%.

Regarding `Cc1ccc(S(=O)(=O)N2CCC[C@H]2c2ccc(F)cc2)cc1` [Ro 67-7476], in experiment [1] (Well no.=8053), the remaining activity at 1.25 µM turned out to be 99.6%. Also, in experiment [2] (Well no.=8053), the remaining activity at 3.75 µM was found to be 102%.

On to `O=C(O)Cc1ccccc1` [Sodium Phenylacetate], for which the remaining activity at 1.25 µM in experiment [1] (Well no.=1884) amounted to 94.7%. For the same molecule, in experiment [2] (Well no.=1884), the remaining activity at 3.75 µM was found to be 97.8%.

On to `COc1ccc(-c2cc(=O)c3ccc(O)cc3o2)cc1` [Pratol], for which the remaining activity at 1.25 µM in experiment [1] (Well no.=3829) turned out to be 97.5%. The remaining activity at 3.75 µM in experiment [2] (Well no.=3829) was found to be 96.6%.

Turning to `CCCCCCCCCCCC(=O)O` [Lauric acid], in experiment [1] (Well no.=7169), the remaining activity at 1.25 µM was 96.8%. In addition, the remaining activity at 3.75 µM in experiment [2] (Well no.=7169) stood at 98.4%.

With `CCOC(=O)[C@H](CCc1ccccc1)N[C@@H](C)C(=O)N1[C@H](C(=O)O)C[C@@H]2CCC[C@@H]21` [Ramipril], the remaining activity at 1.25 µM amounted to 94.4% in experiment [1] (Well no.=2195) and 99.8% in experiment [1] (Well no.=7446). In addition, the remaining activity at 3.75 µM is 93.2% in experiment [2] (Well no.=2195) and 98.5% in experiment [2] (Well no.=7446).

With `CCCCCC/C=C\CCCCCCCCCC(=O)O` [11(Z)-Octadecenoic acid], in experiment [1] (Well no.=4348), the remaining activity at 1.25 µM was determined as 102%. Besides, the remaining activity at 3.75 µM in experiment [2] (Well no.=4348) amounted to 94%.

In the case of `CCOC(=O)[C@H](CCc1ccccc1)N[C@@H](C)C(=O)N1Cc2ccccc2C[C@H]1C(=O)O` [Quinapril], the remaining activity at 1.25 µM in experiment [1] (Well no.=2189) worked out at 98.1%. The remaining activity at 3.75 µM in experiment [2] (Well no.=2189) was 96.3%.

On to `CCCCCCCCCCCCCCCCCCOCC(COP(=O)([O-])OCC[N+](C)(C)C)OC` (centres unmarked) [ET-18-OCH3], for which the remaining activity at 1.25 µM in experiment [1] (Well no.=502) was 104%. Further, the remaining activity at 3.75 µM in experiment [2] (Well no.=502) worked out at 102%.

For the molecule `Cc1cncc(CN2CCC(=C3c4ccc(Cl)cc4CCc4cccnc43)CC2)c1` [Rupatadine Fumarate], the remaining activity at 1.25 µM in experiment [1] (Well no.=4925) stood at 103%. For the same molecule, the remaining activity at 3.75 µM in experiment [2] (Well no.=4925) is 101%.

Regarding `CN1[C@@H]2CCC[C@H]1C[C@@H](NC(=O)c1nn(C)c3ccccc13)C2` [Granisetron (Hydrochloride)], the remaining activity at 1.25 µM in experiment [1] (Well no.=6223) is 104%. Besides, in experiment [2] (Well no.=6223), the remaining activity at 3.75 µM worked out at 102%.
